Holding throughout (assay): DTP human tumour cell line panel, 48 h
For assay [1], the system named is A498 renal.
The subject of assay [2] is DU-145 prostate.
Assay [3] has as its system EKVX NSCLC.
Assay [4] has as its system HCT-15 colon.
Assay [5] relates to MCF7 breast.
Assay [6] relates to SK-MEL-2 melanoma.
For assay [7], the system named is SNB-19 CNS.
The subject of assay [8] is UACC-257 melanoma.
Assay [9] concerns HCC-2998 colon.
The test system of assay [10] is MALME-3M melanoma.

Values joined by “and” are separate entries in the source; they are usually repeats but may differ in a detail not shown here. Equal entries are not always repeated.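 Exposure lasted 48 hours, with cells grown in 96-well plates and compounds tested at five concentrations. GI50 is the concentration that inhibits growth by half. Definition used: TGI = concentration required for complete inhibition of growth.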

In general, GI50 refers to the concentration at which growth is held to half of that of the control. Broadly, the TGI is the concentration at which net growth stops. Higher therefore signals lower sensitivity of the cells. Regarding `CCOC(=O)c1c(C)n(CC(C)C)c2c1cc1oc(=O)c(=O)n3cnc2c13`, the GI50 in assay [1] is 14.2 µM; in assay [2], 16.3 µM; in [3], 17.4 µM; in assay [4], 15.2 µM; in [5], 12.5 µM; in assay [6] it was 38.7 µM. Besides, the GI50 in [7] was 36.2 µM; in assay [8], 11.3 µM. Also, the concentration for total growth inhibition (TGI) in assay [1] is 41.3 µM; in assay [2] it was above 50 µM; in assay [3] it was above 50 µM; in assay [4] it was above 50 µM; in assay [5], 45.3 µM; in assay [6], above 50 µM. For the same compound, the total growth inhibition concentration (TGI) in [7] was above 50 µM; in assay [8], 30.5 µM.

`O=C1/C(=C/c2ccc([N+](=O)[O-])s2)Oc2ccccc21`: the GI50 in [1] was 3.22 µM; in assay [2], 2.43 µM; in assay [9], 1.42 µM; in assay [4] it was 0.246 µM; in assay [10] it was 1.39 µM; in assay [5], 0.75 µM. Also, the figures for the GI50 in assay [6], in [7] and in assay [8] were 0.945 µM, 1.26 µM and 1.26 µM, respectively. Besides, the TGI in assay [1] is 18 µM; in assay [2], 5.56 µM; in assay [9] it was 2.89 µM; in assay [4] it was 0.688 µM; in assay [10], 3.92 µM; in assay [5], 5.02 µM. For the same compound, the figures for the TGI in assay [6], in [7] and in [8] were 3.04 µM, 2.79 µM and 2.78 µM, respectively.

In the case of `Cc1[nH]nc2c1N=C(c1ccccc1F)c1cc(C#N)ccc1N2`, the concentration for 50% growth inhibition (GI50) in assay [1] was 0.146 µM; in assay [2], 3 µM; in assay [9] it was 3.58 µM; in assay [10] it was 14.7 µM; in [5] it was 0.119 µM; in [6], 2.39 µM. The results for the GI50 in [7] and in assay [8] were 4.16 µM and 9.71 µM, respectively. Besides, the concentration for total growth inhibition (TGI) in assay [1] is 1.08 µM; in assay [2] it was 12.8 µM; in assay [9], 15.9 µM; in assay [10], above 25 µM; in assay [5], above 16.8 µM; in assay [6] it was 8.81 µM. In addition, the concentration for total growth inhibition (TGI) was 13.9 µM in assay [7] and above 25 µM in assay [8].

As for `Cc1ccc(C2SCc3nc4ccc(C(=O)c5ccccc5)cc4n32)cc1` (centres undefined), the GI50 is 13.5 µM in [1]; 27.9 µM in assay [2]; 21.8 µM in assay [3]; 3.85 µM in assay [4]; 6.27 µM in assay [10]; 11.9 µM in assay [5]. Also, the results for the GI50 in [6], in [7] and in assay [8] were 12.1 µM, 12.4 µM and 22 µM, respectively. Further, the concentration for total growth inhibition (TGI) in assay [1] is 36.3 µM; in [2], 89.6 µM; in assay [3] it was above 100 µM; in assay [4] it was above 42.9 µM; in [10], 26.8 µM; in assay [5] it was above 76.7 µM. Also, the TGI is 47.3 µM in assay [6], above 71.9 µM in [7] and above 61.9 µM in assay [8].

For `CCN(Cc1nc2cc(C(F)(F)F)ccc2nc1-c1ccccc1)c1ccc(OC)c(OC)c1`, the GI50 is 4.42 µM in assay [1]; 14.5 µM in assay [2]; 20.1 µM in [3]; 16.7 µM in [9]; 16.3 µM in [4]; 25.9 µM in [5]. Besides, the GI50 in assay [6] is 16.7 µM; in assay [7], 24.6 µM; in [8], 0.0249 µM. For the same compound, the TGI in assay [1] was 20.7 µM; in [2], 31.9 µM; in assay [3], 73.6 µM; in [9], 34.4 µM; in [4], 34.5 µM; in [5] it was above 100 µM. Also, the concentration for total growth inhibition (TGI) was 34.7 µM in [6], 50.4 µM in [7] and 0.793 µM in assay [8].

Turning to `CN1CCN(Cc2ccc(NC(=O)c3[nH]ncc3Nc3ncnc4sccc34)cc2)CC1`, the concentration for 50% growth inhibition (GI50) is 0.0172 µM in [1]; 0.35 µM in assay [2]; 0.425 µM in [3]; 0.254 µM in [4]; 0.126 µM in assay [5]; 0.368 µM in [6]. Also, the concentration for 50% growth inhibition (GI50) in assay [7] was 0.335 µM; in [8] it was 2.12 µM. Besides, the concentration for total growth inhibition (TGI) is 1.12 µM in [1]; above 100 µM in [2]; 3.53 µM in [3]; above 100 µM in [4]; above 100 µM in [5]; 2.26 µM in [6]. The TGI in assay [7] and in [8] was above 100 µM each time.

`COC(=O)[C@@H](Cc1c[nH]c2ccccc12)NC(=O)/C=C/c1ccccc1`: the GI50 in assay [1] is 0.511 µM; in assay [2], 4.58 µM; in [9], 2.65 µM; in assay [4] it was 3.31 µM; in assay [10], above 100 µM; in assay [5], 3.2 µM. The results for the GI50 in assay [6], in [7] and in assay [8] were 6.63 µM, 7.31 µM and 9.03 µM, respectively. Moreover, the concentration for total growth inhibition (TGI) in assay [1] is 6.75 µM; in assay [2] it was above 100 µM; in assay [9] it was 8.56 µM; in assay [4], above 100 µM; in [10] it was above 100 µM; in assay [5] it was above 100 µM. In addition, the total growth inhibition concentration (TGI) in assay [6], in [7] and in [8] was above 100 µM in each case.

On to `CC(C)c1cc(CNc2nc(Nc3cc(C4CC4)[nH]n3)cc(N3CCN(C)CC3)n2)on1`, for which the GI50 in assay [2] is 1.57 µM and 0.205 µM; in [3], 0.587 µM; in assay [9], 2.79 µM and 0.343 µM; in assay [10] it was 1.61 µM and 0.276 µM; in assay [6] it was 1.69 µM and 0.646 µM; in assay [7] it was 4.59 µM and 0.471 µM. Moreover, the concentration for total growth inhibition (TGI) in assay [3] was above 10 µM; in assay [9], > 10 µM and 6.39 µM; in [4], > 10 µM and 8.47 µM; in [10] it was > 10 µM and 2.96 µM; in assay [5] it was > 10 µM and 13.1 µM; in assay [6] it was > 10 µM and 2.29 µM. Moreover, the concentration for total growth inhibition (TGI) in [7] was > 10 µM and 23.3 µM; in assay [8] it was > 10 µM and 5.53 µM.

Values taken from PubChem BioAssay (NCI).
